The target in test [1] is T1, mu opioid receptor (MOR) (Homo sapiens, UniProt P35372). As to the kind of experiment: Hit Hunter cAMP signaling assay (adenylyl cyclase inhibition), PAM mode with EC20 endomorphin-1. Type of test: cell-based. Conditions: for cAMP Max. Resp.: maximal response for adenylyl cyclase inhibition.
Test [2] has as its target T1, mu opioid receptor (MOR). As to the kind of experiment: PathHunter β-arrestin recruitment assay, PAM mode with EC20 endomorphin-1. The format is cell-based. The following applies: for β-arr Max. Resp.: maximal response for β-arrestin recruitment; for EC50: β-arrestin recruitment, read-out: β-arr. EC50. The essentials:
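Enzyme fragment complementation read-out: β-gal ED fragment fused to receptor, EA fused to β-arrestin, recruitment restoring β-gal activity detected by chemiluminescence. EC50 and percent maximal response derived for each compound.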
On the technique in general: Activated receptors often draw arrestin, which recruitment assays turn into a signal.

Where [3] appears, read: cAMP EC50, adenylyl cyclase inhibition.

The results in this text go back to US11071731B2, “Allosteric modulators of the mu opioid receptor” (Chiromics, LLC, priority 2017, dated 2021).

A value given as a limit tells only on which side of the number the result lay.

T1 sequence (P35372 whole entry): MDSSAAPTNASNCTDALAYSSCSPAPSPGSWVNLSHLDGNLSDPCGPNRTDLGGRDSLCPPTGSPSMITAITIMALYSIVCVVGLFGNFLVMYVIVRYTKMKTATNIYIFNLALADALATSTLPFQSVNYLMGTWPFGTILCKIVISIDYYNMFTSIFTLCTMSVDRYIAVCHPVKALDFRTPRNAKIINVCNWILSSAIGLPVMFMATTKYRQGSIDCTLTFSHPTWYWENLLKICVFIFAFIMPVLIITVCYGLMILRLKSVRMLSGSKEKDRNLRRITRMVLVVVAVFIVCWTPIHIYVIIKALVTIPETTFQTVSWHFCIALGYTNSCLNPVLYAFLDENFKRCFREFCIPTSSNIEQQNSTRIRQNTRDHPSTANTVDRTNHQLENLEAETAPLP

The term EC50 denotes the concentration giving half of the maximal effect. Take `COc1ccc(C2CCCCN2c2nc(Cl)ncc2F)cc1C(F)(F)F` (stereo not drawn) [compound 289]: the EC50 is more than 2100 nM at mu opioid receptor (MOR) [1] (setting [3]) and 700 to 2100 nM on mu opioid receptor (MOR) [2]. Moreover, on mu opioid receptor (MOR) [1], the “cAMP Max. Resp.” value was “D (D represents a maximal response of < 40%)”. Also, the “β-arr Max. Resp.” value on mu opioid receptor (MOR) [2] was “F (F represents a maximal response of > 60%)”.

Turning to `FC(F)(F)c1cccc(C2CCCCN2Cc2ccc(Cl)cc2)n1` (stereo not drawn) [compound 146], on mu opioid receptor (MOR) [1] (setting [3]), the EC50 is more than 2100 nM. In addition, the “cAMP Max. Resp.” value on mu opioid receptor (MOR) [1] is recorded as “D (D represents a maximal response of < 40%)”. For the same compound, on mu opioid receptor (MOR) [2], the “β-arr Max. Resp.” value is reported as “F (F represents a maximal response of > 60%)” and the EC50 is more than 2100 nM.

With `Fc1cnc(Cl)nc1N1CCCCC1c1cc(C(F)(F)F)ccn1` (stereo not drawn) [compound 278], the EC50 on mu opioid receptor (MOR) [1] (setting [3]) fell in the range of 700 to 2100 nM. In addition, at mu opioid receptor (MOR) [1], the “cAMP Max. Resp.” value is given as “F (F represents a maximal response of > 60%)”. Further, on mu opioid receptor (MOR) [2], the “β-arr Max. Resp.” value is “F (F represents a maximal response of > 60%)” and the EC50 was more than 2100 nM.

As for `Cc1nnc(C2CCCCN2c2nc(Cl)ncc2F)o1` (stereo not drawn) [compound 363], the EC50 at mu opioid receptor (MOR) [1] (setting [3]) and at mu opioid receptor (MOR) [2] was less than 700 nM throughout. Moreover, the “cAMP Max. Resp.” value at mu opioid receptor (MOR) [1] is “D (D represents a maximal response of < 40%)”. Further, the “β-arr Max. Resp.” value on mu opioid receptor (MOR) [2] is reported as “D (D represents a maximal response of < 40%)”.

At mu opioid receptor (MOR) [1] (setting [3]), `OC1CCN(c2nc(Cl)ncc2F)C(c2cc(F)cc(C(F)(F)F)c2)C1` (stereo not drawn) [compound 201] registered an EC50 of more than 2100 nM. The “cAMP Max. Resp.” value at mu opioid receptor (MOR) [1] was “F (F represents a maximal response of > 60%)”. In addition, on mu opioid receptor (MOR) [2], the “β-arr Max. Resp.” value was “F (F represents a maximal response of > 60%)” and the EC50 was more than 2100 nM.

The compound `Fc1ccc(Cl)nc1N1CCCCC1c1cccc(C(F)(F)F)c1` (stereo not drawn) [compound 263] came in with an EC50 at mu opioid receptor (MOR) [1] (setting [3]) of 700 to 2100 nM. Moreover, the “cAMP Max. Resp.” value at mu opioid receptor (MOR) [1] is recorded as “D (D represents a maximal response of < 40%)”. Also, on mu opioid receptor (MOR) [2], the “β-arr Max. Resp.” value is “F (F represents a maximal response of > 60%)” and the EC50 was in the range of 700 to 2100 nM.

At mu opioid receptor (MOR) [1] (setting [3]), `[2H]C1(c2ccc(F)c(Br)c2)C(F)CCCN1Cc1cccc(Cl)c1` (stereo not drawn) [compound 203] came in with an EC50 of less than 700 nM. For the same compound, the “cAMP Max. Resp.” value at mu opioid receptor (MOR) [1] is recorded as “D (D represents a maximal response of < 40%)”. In addition, on mu opioid receptor (MOR) [2], the “β-arr Max. Resp.” value is recorded as “F (F represents a maximal response of > 60%)” and the EC50 was more than 2100 nM.

The compound `Fc1ccc(C2CCCCN2Cc2cc(Cl)ccc2Cl)cc1Cl` (stereo not drawn) [compound 158] came in with an EC50 on mu opioid receptor (MOR) [1] (setting [3]) of less than 700 nM. Further, the “cAMP Max. Resp.” value on mu opioid receptor (MOR) [1] was “D (D represents a maximal response of < 40%)”. Besides, at mu opioid receptor (MOR) [2], the “β-arr Max. Resp.” value is recorded as “F (F represents a maximal response of > 60%)” and the EC50 lay in the range of 700 to 2100 nM.

For `CCC1CCCN(c2nc(Cl)ncc2F)C1c1ccc(OC)c(Br)c1` (stereo not drawn) [compound 251], the EC50 on mu opioid receptor (MOR) [1] (adenylyl cyclase inhibition, read-out: cAMP EC50) is more than 2100 nM. Besides, at mu opioid receptor (MOR) [1], the “cAMP Max. Resp.” value is recorded as “D (D represents a maximal response of < 40%)”. Moreover, on mu opioid receptor (MOR) [2], the “β-arr Max. Resp.” value is “F (F represents a maximal response of > 60%)” and the EC50 was more than 2100 nM.

In the case of `COc1ccc(C2CCCCN2S(=O)(=O)c2ccc(C)cc2)cc1Br` (stereo not drawn) [compound 12], the EC50 at mu opioid receptor (MOR) [1] (setting [3]) was 700 to 2100 nM; on mu opioid receptor (MOR) [2], more than 2100 nM. Moreover, on mu opioid receptor (MOR) [1], the “cAMP Max. Resp.” value is listed as “E (E represents a maximal response of 40-60%)”. On mu opioid receptor (MOR) [2], the “β-arr Max. Resp.” value is on record as “F (F represents a maximal response of > 60%)”.

In turn, `Fc1cnc(Cl)nc1N1CCCCC1c1ccc2c(c1)CCO2` (stereo not drawn) [compound 371] had an EC50 on mu opioid receptor (MOR) [1] (setting [3]) of less than 700 nM. In addition, at mu opioid receptor (MOR) [1], the “cAMP Max. Resp.” value is given as “D (D represents a maximal response of < 40%)”. Also, at mu opioid receptor (MOR) [2], the “β-arr Max. Resp.” value was “D (D represents a maximal response of < 40%)” and the EC50 was less than 700 nM.

For `Fc1cnc(Cl)nc1N1CCCCC1c1cnc2ccccn12` (stereo not drawn) [compound 336], the EC50 at mu opioid receptor (MOR) [1] (setting [3]) is less than 700 nM. Further, on mu opioid receptor (MOR) [1], the “cAMP Max. Resp.” value is listed as “D (D represents a maximal response of < 40%)”. Besides, at mu opioid receptor (MOR) [2], the “β-arr Max. Resp.” value was “D (D represents a maximal response of < 40%)” and the EC50 was less than 700 nM.

Turning to `Fc1cnc(Cl)nc1N1CCCCC1c1ccc(Cl)c(Cl)c1` (stereo not drawn) [compound 331], the concentration for a half-maximal effect (EC50) on mu opioid receptor (MOR) [1] (setting [3]) was less than 700 nM. At mu opioid receptor (MOR) [1], the “cAMP Max. Resp.” value is “D (D represents a maximal response of < 40%)”. On mu opioid receptor (MOR) [2], the “β-arr Max. Resp.” value was “D (D represents a maximal response of < 40%)” and the EC50 was less than 700 nM.

Turning to `Fc1cnc(Cl)nc1N1CCCCC1c1cc(C(F)(F)F)c2[nH]ncc2c1` (stereo not drawn) [compound 352], the EC50 at mu opioid receptor (MOR) [1] (setting [3]) and on mu opioid receptor (MOR) [2] was less than 700 nM in each case. For the same compound, the “cAMP Max. Resp.” value on mu opioid receptor (MOR) [1] is on record as “D (D represents a maximal response of < 40%)”. In addition, the “β-arr Max. Resp.” value at mu opioid receptor (MOR) [2] is given as “D (D represents a maximal response of < 40%)”.

Compound `Fc1ccc(Cl)cc1CN1CCCCC1c1cccc(OC(F)(F)F)n1` (stereo not drawn) [compound 169] yielded an EC50 at mu opioid receptor (MOR) [1] (setting [3]) of less than 700 nM. Moreover, the “cAMP Max. Resp.” value at mu opioid receptor (MOR) [1] is “F (F represents a maximal response of > 60%)”. For the same compound, at mu opioid receptor (MOR) [2], the “β-arr Max. Resp.” value is “F (F represents a maximal response of > 60%)” and the EC50 is less than 700 nM.
